For assay [1], the species on record is Canis familiaris. The experiment in a line: In vitro activity in isolated canine cardiac ventricular muscle tissue given as 20 percent increase or decrease in FRP (functional refractory period). The arrangement: species or system Canis lupus familiaris.
Assay [2] is filed under the species Canis familiaris. The experiment in a line: In vitro activity in isolated canine cardiac Purkinje fibers given as maximum change in APD95 from control value at 100 uM of concentration. It is filed as functional, Canis lupus familiaris, Purkinje fiber.
For assay [3], the species on record is Canis familiaris. Description: In vitro electrophysiological activity in isolated canine cardiac ventricular muscle tissue given as maximum change in FRP from control value at 100 uM concentration. Format: functional, Canis lupus familiaris.
For assay [4], the species on record is Canis familiaris. Description: In vitro activity in isolated canine cardiac Purkinje fibers given as 20 percent increase or decrease in action potential duration. Format: functional, Canis lupus familiaris, Purkinje fiber.
Assay [5] is filed under the species Canis familiaris. Description: The compound was evaluated for the change in heart rate at MED for 0.3-30 dose range in PES model. It is filed as functional, Canis lupus familiaris.
Assay [6] is filed under the species Canis familiaris. The experiment in a line: The compound was evaluated for the change in blood pressure at MED for 0.3-30 dose range in PES model. Format: functional, Canis lupus familiaris.
In assay [7] the test system is Canis familiaris. The experiment in a line: The compound was evaluated the change in functional refractory period at 10 mg/kg active dose. The arrangement: species or system Canis lupus familiaris.
Assay [8] relates to Canis familiaris. The experiment in a line: The compound was evaluated the change in blood pressure at 10 mg/kg active dose. It is filed as functional, Canis lupus familiaris.
Assay [9] is filed under the species Canis familiaris. Description: The compound was evaluated for the mean effective dose for antiarrhythmic efficacy in PES model. It is filed as functional. The settings on record: Canis lupus familiaris, Heart; read-out: MED.
Assay [10] deals with Canis familiaris. The experiment in a line: The compound was evaluated the change in heart rate at 10 mg/kg active dose. It is filed as functional, Canis lupus familiaris.
Assay [11] is filed under the species Canis familiaris. The experiment in a line: In vitro activity in isolated canine cardiac Purkinje fibers given as maximum change in APD95 from control value at 10 uM of concentration. Format: functional, Canis lupus familiaris, Purkinje fiber.
Assay [12] is filed under the species Canis familiaris. Description: The compound was evaluated for the change in blood pressure at MED for 0.1-10 dose range in PES model. Format: functional, Canis lupus familiaris.
Assay [13] is filed under the species Canis familiaris. Description: The compound was evaluated for the change in heart rate at MED for 0.1-10 dose range in PES model. Format: functional, Canis lupus familiaris.
The species named for assay [14] is Canis familiaris. Description: In vitro electrophysiological activity in isolated canine cardiac ventricular muscle tissue given as maximum change in FRP from control value at 100 uM concentration; NR = Not reached. The settings on record: Canis lupus familiaris. It is filed as functional.
The species named for assay [15] is Canis familiaris. The experiment in a line: The compound was evaluated for the change in heart rate at MED for 0.1-30 dose range in PES model. It is filed as functional, Canis lupus familiaris.
Assay [16] is filed under the species Canis familiaris. Description: The compound was evaluated for the change in blood pressure at MED for 0.1-30 dose range in PES model. It is filed as functional, Canis lupus familiaris.
The species entered for assay [17] is Canis familiaris. The experiment in a line: The compound was evaluated for the change in blood pressure at MED for 0.3-10 dose range in PES model. It is filed as functional, Canis lupus familiaris.
The species named for assay [18] is Canis familiaris. Description: The compound was evaluated for the change in heart rate at MED for 0.3-10 dose range in PES model. It is filed as functional, Canis lupus familiaris.

The source of these data is ChEMBL document CHEMBL1123572, “Synthesis and antiarrhythmic activity of novel 3-alkyl-1-[omega-[4-[(alkylsulfonyl)amino]phenyl]-omega- hydroxyalkyl]-1H-imidazolium salts and related compounds. 2” (1987).

Structures are written as SMILES. Where “and” joins values, the source holds several entries; their conditions need not be identical. Identical values can stand only once.

In the case of `CC(C(O)c1ccc(NS(C)(=O)=O)cc1)n1cc[n+](C)c1.[Cl-]` (configuration not stated), the “C20 FRP” value in the assay listed under Canis familiaris [1] was found to be 11.2 µM. In addition, the APD95 in the assay filed under Canis familiaris [2] is reported as 36%. Moreover, the FRP in the assay filed under Canis familiaris [3] is given as 31%. For the same compound, the “C20 APD95” value in the assay filed under Canis familiaris [4] worked out at 4.2 µM.
The matching figures for `C[n+]1ccn(CC(C)(O)c2ccc(NS(C)(=O)=O)cc2)c1.[Cl-]` (configuration not stated): 24.3 µM, 71%, 29% and 1.5 µM.
The like results for `CC1=NCCN1CC(=O)c1ccc(NS(C)(=O)=O)cc1` were, in that order, 6.3 µM, 74%, 38% and 1.3 µM.
Consider `Cc1n2c(c[n+]1C)C(c1ccc(NS(C)(=O)=O)cc1)=CCC2.[I-]`, for which the “C20 FRP” value in the assay filed under Canis familiaris [1] was found to be 2.9 µM. Further, the APD95 in the assay filed under Canis familiaris [2] was found to be 38%. The same compound yielded an FRP in the assay listed under Canis familiaris [3] of 40%. In the assay listed under Canis familiaris [4], the “C20 APD95” value was found to be 2.8 µM.
Regarding `CC1=NCCN1CC(O)c1ccc(NS(C)(=O)=O)cc1.Cl` (configuration not stated), the HR in the assay listed under Canis familiaris [5] was -21%; in the assay on Canis familiaris [10], -23%. Moreover, in the assay listed under Canis familiaris [1], the “C20 FRP” value is 1.1 µM and 1.9 µM. Moreover, in the assay filed under Canis familiaris [2], the APD95 came out at 63%. Also, the BP is -1% in the assay filed under Canis familiaris [6] and 2% in the assay on Canis familiaris [8]. Further, the FRP in the assay filed under Canis familiaris [3] is 42% and 38%; in the assay with Canis familiaris [7], 22%. The minimal effective dose in the assay listed under Canis familiaris [9] was 2 mg/kg. Further, the “C20 APD95” value in the assay listed under Canis familiaris [4] was found to be 0.6 µM.
In the assay listed under Canis familiaris [11], `CCCCCCC[N+](CC)(CC)CCCCc1ccc(Cl)cc1` [CLOFILIUM] gave an APD95 of 39%. In addition, the BP was 2% in the assay filed under Canis familiaris [12] and -4% in the assay with Canis familiaris [8]. Besides, the results for the FRP in the assay filed under Canis familiaris [3] and in the assay with Canis familiaris [7] were 7% and 22%, respectively. The HR in the assay listed under Canis familiaris [13] is listed as -12%; in the assay on Canis familiaris [10], -18%. In addition, the minimal effective dose in the assay filed under Canis familiaris [9] turned out to be 0.63 mg/kg. In the assay filed under Canis familiaris [4], the “C20 APD95” value is 0.26 µM.
The compound `Cc1n2c(c[n+]1C)C(c1ccc(NS(C)(=O)=O)cc1)CCC2.[I-]` (configuration not stated) yielded an APD95 in the assay listed under Canis familiaris [2] of 27%. The FRP entry in the assay listed under Canis familiaris [14] was “Not reached”. Moreover, the “C20 APD95” value in the assay listed under Canis familiaris [4] worked out at 46.6 µM.
As to `Cn1cc[n+](C)c1C(O)c1ccc(NS(C)(=O)=O)cc1.[I-]` (configuration not stated), the APD95 in the assay listed under Canis familiaris [2] was 37%. Further, the FRP in the assay filed under Canis familiaris [3] is 17%. In addition, the “C20 APD95” value in the assay filed under Canis familiaris [4] was 20.7 µM.
Regarding `C[n+]1ccn(CCc2ccc(O)cc2)c1.[Cl-]`, the “C20 FRP” value in the assay filed under Canis familiaris [1] is 50.1 µM. For the same compound, the APD95 came to 23% in the assay listed under Canis familiaris [11] and 20% in the assay listed under Canis familiaris [2]. The compound also registered an FRP in the assay filed under Canis familiaris [3] of 7%. In addition, the “C20 APD95” value in the assay listed under Canis familiaris [4] was 6.2 µM.
`CC(C(=O)c1ccc(NS(C)(=O)=O)cc1)n1cc[n+](C)c1.[Cl-]` (configuration not stated): the “C20 FRP” value in the assay listed under Canis familiaris [1] is 7.7 µM. Besides, the APD95 in the assay listed under Canis familiaris [2] was 65%. The compound also had an FRP in the assay filed under Canis familiaris [3] of 22%. For the same compound, the “C20 APD95” value in the assay filed under Canis familiaris [4] was found to be 3 µM.
With `C[n+]1ccn(/C=C/c2ccc(O)cc2)c1.[Br-]`, the APD95 in the assay filed under Canis familiaris [11] was 23% and 20%; in the assay listed under Canis familiaris [2] it was 27%. The “C20 APD95” value in the assay filed under Canis familiaris [4] amounted to 10.2 µM.
`CC(C)NCC(O)c1ccc(NS(C)(=O)=O)cc1` (configuration not stated) [SOTALOL]: in the assay listed under Canis familiaris [1], the “C20 FRP” value stood at 24.7 µM. This compound also showed an APD95 in the assay filed under Canis familiaris [2] of 48%. The HR in the assay listed under Canis familiaris [15] is -23%; in the assay on Canis familiaris [10] it was -11%. The results for the FRP in the assay filed under Canis familiaris [3] and with Canis familiaris [7] were 23% and 16%, respectively. Also, the BP in the assay filed under Canis familiaris [16] is recorded as -23%; in the assay with Canis familiaris [8], 8%. For the same compound, the minimal effective dose in the assay listed under Canis familiaris [9] is 1.4 mg/kg. Moreover, in the assay listed under Canis familiaris [4], the “C20 APD95” value worked out at 14.4 µM.
On to `C[n+]1ccn(CC(O)c2ccc(NS(C)(=O)=O)cc2)c1.[Cl-]` (configuration not stated), for which the “C20 FRP” value in the assay listed under Canis familiaris [1] was determined as 5.9 µM. Further, the BP in the assay filed under Canis familiaris [17] came out at 0%; in the assay with Canis familiaris [8], 5%. Further, the APD95 in the assay filed under Canis familiaris [2] is given as 50%. Also, the figures for the FRP in the assay listed under Canis familiaris [3] and in the assay with Canis familiaris [7] were 31% and 21%, respectively. For the same compound, the HR was -23% in the assay listed under Canis familiaris [18] and -10% in the assay on Canis familiaris [10]. Besides, the minimal effective dose in the assay filed under Canis familiaris [9] was 6.5 mg/kg. Also, the “C20 APD95” value in the assay listed under Canis familiaris [4] is 1.6 µM.
Consider `CS(=O)(=O)Nc1ccc(C(=O)C[n+]2ccsc2)cc1.[Cl-]`, for which, in the assay listed under Canis familiaris [1], the “C20 FRP” value was found to be 10 µM. Further, the APD95 in the assay filed under Canis familiaris [2] is 80%. In the assay filed under Canis familiaris [3], this compound yielded an FRP of 17%. In addition, the “C20 APD95” value in the assay listed under Canis familiaris [4] was 3.1 µM.
